The assay deals with HPCS, 3-hydroxypropionyl-CoA synthetase (HPCS/HPCD complex) (Metallosphaera sedula, UniProt A4YGR1). The settings on record: ATP 3 mM, CoA 0.1 mM, MgCl2 20 mM, NADPH 0.5 mM, pH 6.5, 65°C.

Each structure is given as a SMILES string.

Chain of HPCS, 3-hydroxypropionyl-CoA synthetase (HPCS/HPCD complex) (A4YGR1 whole entry): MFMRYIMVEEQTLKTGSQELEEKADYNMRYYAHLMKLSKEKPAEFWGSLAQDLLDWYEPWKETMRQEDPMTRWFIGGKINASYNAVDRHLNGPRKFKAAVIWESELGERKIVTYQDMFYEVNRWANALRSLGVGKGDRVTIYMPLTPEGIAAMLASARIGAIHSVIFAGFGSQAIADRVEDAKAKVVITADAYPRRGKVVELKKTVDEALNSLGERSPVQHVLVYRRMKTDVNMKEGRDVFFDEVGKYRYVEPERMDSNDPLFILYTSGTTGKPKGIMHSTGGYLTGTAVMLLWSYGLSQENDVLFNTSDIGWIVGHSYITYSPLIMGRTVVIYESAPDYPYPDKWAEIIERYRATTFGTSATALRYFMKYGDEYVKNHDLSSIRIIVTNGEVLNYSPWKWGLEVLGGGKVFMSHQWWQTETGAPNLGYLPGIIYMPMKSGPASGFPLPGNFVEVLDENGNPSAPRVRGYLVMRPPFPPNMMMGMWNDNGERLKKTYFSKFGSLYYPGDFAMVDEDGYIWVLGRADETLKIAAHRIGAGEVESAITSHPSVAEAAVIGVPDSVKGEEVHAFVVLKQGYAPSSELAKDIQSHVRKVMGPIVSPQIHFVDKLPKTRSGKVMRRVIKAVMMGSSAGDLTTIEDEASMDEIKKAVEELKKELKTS
Chain of HPCS, 3-hydroxypropionyl-CoA synthetase (HPCS/HPCD complex) (A4YI89 whole entry partner): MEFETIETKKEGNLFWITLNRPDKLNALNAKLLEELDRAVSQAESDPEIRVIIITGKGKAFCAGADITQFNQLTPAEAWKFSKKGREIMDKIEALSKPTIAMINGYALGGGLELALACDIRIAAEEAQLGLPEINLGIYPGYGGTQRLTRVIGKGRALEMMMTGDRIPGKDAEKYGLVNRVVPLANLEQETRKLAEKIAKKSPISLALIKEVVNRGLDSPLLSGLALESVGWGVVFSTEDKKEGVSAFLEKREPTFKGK

As to `O=C(O)CCO` [3-Hydroxypropionate], the “HPLC of propionyl-CoA formed with HPCS/HPCD and ACR” value is “Formation of propionyl-CoA from 3HP by HPCS, HDCD, and ACR”.
